Data reported in patent publication US11345702B1 (Myoforte Therapeutics, Inc., priority 2020, dated 2022).
pIC50: −log10 of the molar value.

Key:
[1] = Liver microsome stability assay (HLM); assay type: in vitro ADME; conditions: human liver microsomes
Protocol: (§1) A microsomal mixture (microsomes and Kphos buffer) was prepared at a concentration of 1.428 mg/mL in 2 mL tubes. To this microsomal mixture 1.6 μL (1 mM) of test compound and positive control were spiked; from this mixture, 70 μL was transferred to 96 well plate and pre-incubated at 37° C. for 5 min. After pre-incubation, the zero minute time point reaction was stopped using 100 μL of ice-cold acetonitrile containing internal standard and […] (3.33 mM in Kphos buffer) was added. The 45 minute time point reaction was initiated by addition of 30 μL of NADPH (3.33 mM in Kphos buffer) and incubated at 37° C. for 15 and 45 min. Reactions without NADPH and buffer controls (minus NADPH) at 0, 15, and 45 minutes were also incubated to rule out non-NADPH metabolism or chemical instability in the incubation buffer. Incubation reactions were stopped with 100 μL of ice-cold acetonitrile containing internal standard. The plates were centrifuged at 4000 RPM for 15 min and 100 μL aliquots were submitted for analysis by LC-MS/MS. (Verapamil in human liver microsomes (HLM) and rat liver microsomes (RLM) was used as positive controls. Imipramine in mouse liver microsomes (MLM) was used as a positive control.) Samples were monitored for parent compound disappearance in MRM mode (multiple reaction monitoring) using LC-MS/MS. The peak area ratios of analyte versus internal standard were used to calculate the % remaining at the end of 45 minutes in the presence of NADPH.

[2] = target: 15-PGDH/HPGD (Homo sapiens (Human), UniProt P15428); test: hPGDH inhibitor screening biochemical assay; conditions: read-out: hPGDH: Average IC50
Procedure, shortened: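 Recombinant human 15-PGDH (10 nM) pre-incubated with compounds 10 min at 37 °C, then 15 μM PGE2 and 0.25 mM NAD+ added for 10 min at room temperature in 50 mM Tris-HCl pH 7.5, 0.01% Tween 20. NADH fluorescence read at ex/em 340/485 nm. IC50 from 10-point curves, four-parameter fit versus 1% DMSO.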

[3] = Liver microsome stability assay (RLM); assay type: in vitro ADME; conditions: rat liver microsomes
Protocol: as §1

[4] = system: A549 cells; test: A549 cell-based assay (PGE2 level)
Protocol: 30,000 A549 cells per well were seeded into a tissue culture treated flat bottom 96 well plate, and incubated for 24 hours in a 37° C., […] incubator. After 24 hours of incubation, complete media were replaced with 100 μL of low serum (F12K+1% FBS) media and the plate was incubated for 24 hours in a 37° C., 5% CO2 incubator. After 24 hours of incubation, low serum media was replaced with 80 μL of complete medium (F12K+10% FBS) and 10 μL (10× concentration) of compounds were added and incubated at 37° C. for 30 minutes followed by stimulation of 10 μL (10× concentration) of IL-1b (Final concentration 0.25 ng/mL) overnight in a 37° C., […] incubator. After 24 hours of incubation, the supernatant was collected and the PGE2 level was detected by using Cisbio HTRF kit (Catalog #62P2APEH). Briefly, 5 μL of sample (100-Fold diluted) was dispensed into each sample well. 5 μL of each Prostaglandin E2 standard (Std 0-Std 7) was dispensed into each standard well. 2.5 μL of Prostaglandin E2-d2 working solution was added to all wells except negative controls and 2.5 μL of Anti-Prostaglandin E2-Eu3+ Cryptate working solution was added to all wells. […] After 5 hours of incubation, the plate sealer was removed and the plate was read on a HTRF® compatible reader. Delta F and PGE2 level were calculated as per kit instructions. % Fold change was calculated with respect to DMSO control wells.

[5] = Liver microsome stability assay (MLM); assay type: in vitro ADME; conditions: mouse liver microsomes
Procedure, shortened: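 Mouse, rat or human liver microsomes (mixture at 1.428 mg/mL) in potassium phosphate buffer, 37 °C, incubated with compound after NADPH addition; minus-NADPH controls included. Parent loss by LC-MS/MS (MRM) with internal standard; value is % remaining at 45 min with NADPH.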

[6] = Solubility at pH 7.4; assay type: physicochemical; conditions: pH 7.4

Sequence of 15-PGDH/HPGD (P15428 whole entry): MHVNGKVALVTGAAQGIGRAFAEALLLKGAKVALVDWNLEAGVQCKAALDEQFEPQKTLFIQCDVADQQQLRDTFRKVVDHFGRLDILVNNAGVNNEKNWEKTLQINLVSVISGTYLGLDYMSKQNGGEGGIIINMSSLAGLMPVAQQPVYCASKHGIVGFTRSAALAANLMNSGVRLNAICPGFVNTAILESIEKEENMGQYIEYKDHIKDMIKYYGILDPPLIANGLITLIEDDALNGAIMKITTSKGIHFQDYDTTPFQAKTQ

Row | Compound | HLM + NADPH (% remaining at 45 min) [1] [%] | pIC50 [2] | RLM + NADPH (% remaining at 45 min) [3] [%] | activity in the A549 cell-based assay (FIG. 1) [4] | MLM + NADPH (% remaining at 45 min) [5] [%] | Solubility: Solubility at pH 7.4 (μM) [6] [μM]
1 | Cc1ncc(-n2cc(Cl)c3cc(C(=O)N4CCC(F)CC4)cnc32)cn1 [MF-DH-169, (3-chloro-1-(2-methylpyrimidin-5-yl)-1H-pyrrolo[2,3-b]pyridin-5-yl)(4-fluoropiperidin-1-yl)methanone] | 71 | > 7.00 | 69 |  |  | 
2 | O=C(c1cnc2c(ccn2-c2ccc3c(c2)OCO3)c1)N1CCC(F)CC1 [MF-DH-175] | 117 | > 7.00 | 45 |  |  | 
3 | N#Cc1ccc(-n2ccc3cc(C(=O)N4CCC(F)CC4)cnc32)cc1 [MF-DH-342] |  | > 7.00 |  | displayed activity |  | 
4 | O=C(c1cnc2c(c1)ncn2-c1cccc(Cl)c1)N1CCCCC1 [MF-PGDH-020] | 87 | > 7.00 | 23 |  | 30 | 150
5 | COc1ccc(-n2cnc3cc(C(=O)N4CCCCC4)cnc32)cc1 [MF-PGDH-077] | 97 | > 7.00 | 84 |  |  | 160
6 | COc1ccc(-n2cnc3cc(C(=O)N4CCC(F)CC4)cnc32)cc1 [MF-PGDH-078] | 96 | > 7.00 | 89 |  |  | 140
7 | COc1ccc(-n2cnc3cc(C(=O)N4CCC(F)(F)CC4)cnc32)cc1 [MF-PGDH-079] | 100 | > 7.00 | 87 |  |  | 140
